The values below come from US20220096592A1, “PIC1 VARIANTS WITH IMPROVED SOLUBILITY AND METHODS OF USING THE SAME” (priority 2019, published 2022).

Where a SMILES comes first, the peptide text is derived from it. [ ]: non-standard residue; d: D form. Sar = CNCC(=O)O

One test has as its target T1, MPO (Homo sapiens, UniProt P05164).
T1 construct: purchased Lee BioSolutions (Maryland Heights, Mo.)
Nature of the test: plate-based assay of binding to solid phased MPO. The following applies: binding curves and half-maximal binding, FIG. 2C, 2D. On the procedure:
(§1) The plates were washed with PBST (phosphate buffered saline+0.1% Tween) and then blocked with 1% gelatin/PBS for 2 hours at room temperature. After washing, the plates were incubated with PA or sarcosine variant peptides starting at 2.5 mg/ml and then serially diluted in 1% gelatin/PBS for 1 hour at room temperature. After washing, the plates were probed with rabbit anti-PA (developed with Cocalico Biologicals, Reamstown, Pa.) at 1:1000 in 1% gelatin/PBS for 1 hour, room temperature, followed by a goat anti-rabbit HRP (Sigma Aldrich, St Louis, Mo.) at 1:1,000 in 1% gelatin/PBS for 1 hour at room temperature with a washing step in between. Wells were developed using TMB substrate solution, stopped using 1 N H2SO4, and read at 450 nm in a plate reader.
A plate-based assay was performed to test the binding of the peptide variants to solid phased MPO. MPO binding was identified for all variants, except for C9,10.

Another test addresses T2, C1q (Homo sapiens, UniProt P02745+P02746+P02747).
T2 construct: purchased Complement Technology (Tyler, Tex.)
Briefly: ELISA-type assay of peptide binding to C1q. The following applies: binding curves and half-maximal binding, FIG. 1C, 1D. Here is the method:
as §1
Higher concentrations of DMSO interfere with the detecting reagents resulting in a partial binding curve.

Test [1] has as its system antibody-initiated complement activation (ABO incompatible hemolysis). The following applies: for inhibition of ABO incompatible hemolysis, in words: peptides at 1.8 mM, compared with PA-dPEG24, FIG. 1A; for complement inhibition overall, in words: both hemolytic complement inhibition assays. Here is the method:
(§2) For hemolytic complement assays, human red blood cells (RBCs) from type AB donors were purified, washed and standardized to 1×10^9 cells/ml, as previously described. Human sera from type 0 donors at a 20% final concentration was combined with […] PIC1 or sarcosine variant peptides, and the volume was brought up to 0.15 ml with GVBS^++ and […] RBCs. For factor B-depleted sera hemolytic assays, a final of 0.005% factor B depleted sera was incubated with […] PIC1 or sarcosine variant peptides with 0.1 ml antibody-sensitized sheep red blood cells (EA) in a final volume of 0.75 ml GVBS^++. The samples were incubated for one hour at 37° C. Then, 1.0 ml of GVBS^−− was added to the factor B-depleted samples to stop the reaction. The samples were spun at 3,000 rpm for 5 minutes. The supernatant was then collected and read at 412 nm. An analysis was performed to represent the values as a percent of the positive control, which consists of human 0 sera and AB red blood cells in GVBS^++ buffer.
(§3) An evaluation of the extent to which the peptide variants inhibit antibody-initiated complement activation was performed. The peptide variants were tested in the following two hemolytic assays: (i) an ABO incompatibility ex vivo assay and (ii) a classical pathway CH50-type assay in factor B-depleted sera.
In the ABO incompatibility hemolytic assay, purified erythrocytes from a ‘type AB+’ donor were incubated with sera from a ‘type 0’ subject containing anti-A and anti-B antibodies; peptides were tested at 1.8 mM.

A short description of test [2]: Total Antioxidant Capacity (TAC) assay. The note with it: for total antioxidant capacity, in words: 0.03-0.25 mM, copper reducing equivalents, FIG. 4. Here is the method: The TAC (Total Antioxidant Capacity) Assay (Cell Biolabs, Inc. San Diego, Calif.) was used to measure the antioxidant capacity of the sarcosine variants based on the reduction of copper (II) to copper (I). The assay was performed according to the recommended kit protocol.
Antioxidant activity was measured in copper reducing equivalents (CRE). Peptides were tested over a range of concentrations from 0.03-0.25 mM then compared to the standard.

For the next test, the target named is T3, MPO heme ring (Homo sapiens, UniProt P05164).
T3 construct: purchased Lee BioSolutions (Maryland Heights, Mo.)
T3 sequence (P05164 279-745 limits assumed): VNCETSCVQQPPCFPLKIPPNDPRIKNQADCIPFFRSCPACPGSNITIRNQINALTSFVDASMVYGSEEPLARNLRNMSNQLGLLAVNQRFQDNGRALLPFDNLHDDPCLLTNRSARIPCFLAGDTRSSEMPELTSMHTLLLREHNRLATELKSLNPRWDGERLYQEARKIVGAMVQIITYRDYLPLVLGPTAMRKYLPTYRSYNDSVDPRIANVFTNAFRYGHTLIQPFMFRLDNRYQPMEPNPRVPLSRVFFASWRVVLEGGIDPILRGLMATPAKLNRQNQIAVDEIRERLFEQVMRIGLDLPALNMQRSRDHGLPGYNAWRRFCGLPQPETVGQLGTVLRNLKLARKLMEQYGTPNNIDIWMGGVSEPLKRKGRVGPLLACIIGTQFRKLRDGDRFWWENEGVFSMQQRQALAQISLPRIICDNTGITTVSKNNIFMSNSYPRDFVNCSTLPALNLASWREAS
T3 sequence (P05164 165-273 limits assumed): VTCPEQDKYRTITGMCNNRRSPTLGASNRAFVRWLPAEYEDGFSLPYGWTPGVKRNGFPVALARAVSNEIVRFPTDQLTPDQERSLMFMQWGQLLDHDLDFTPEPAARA
Nature of the test: MPO heme ring oxidative degradation (absorbance 300-550 nm). The class given is biochemical. The note with it: peptides at 3 mM, with H2O2, FIG. 3A-3H. On the procedure: In a 96 well plate, 0.025 ml of 1.7 mg/ml MPO was combined with 0.00125 ml of 0.5% H2O2 and 3 mM PIC1 or sarcosine variant peptides in a total volume of 0.125 ml PBS and left to incubate at room temperature for 2 minutes. Using a 96 well plate reader, the wells were scanned for absorbance from 300-550 nm to generate curves reflecting the iron state in the MPO heme ring, as previously reported.
The ability of the variants to prevent degradation of the heme ring in the MPO molecule was then evaluated. […] Degradation of the heme ring can be evaluated via spectrometric measurements of absorption of wavelengths from 300 to 550 nm.

For test [3], the system named is purified human neutrophils. Briefly: NETosis assay (immune complex activated serum and H2O2; PicoGreen free DNA, fluorescence microscopy). The note with it: peptides at 2 mM, FIG. 5A. The class given is cell-based. On the procedure:
NETosis assays with immune complexes were performed as previously described. Briefly, normal human serum was stimulated with ovalbumin-antiovalbumin immune complexes in GVBS^++ for 30 minutes at 37° C. This mixture along with 0.05% H2O2 was then added to purified human neutrophils resuspended in RPMI with or without sarcosine variants (2 mM), allowing NETosis to occur. Quantitation of free DNA released from the neutrophils was performed using PicoGreen. Slides were stained with DAPI (Southern Biotech, Birmingham, Ala.). The following antibodies were used to visualize formation of NETs: • (i) mouse anti-elastase (Invitrogen, Carlsbad, Calif.) as a primary antibody with the secondary goat anti-mouse antibody Alexa Fluor 568 (Novus Biologicals, Centennial, Colo.) and • (ii) rabbit anti-histone H3 (Abcam, Cambridge Mass.) with goat anti-rabbit antibody Alexa Fluor 488 (Novus Biologicals). Fluorescence microscopy using an Olympus BX53 microscope was performed to visualize NETs.
The peptide variants were tested for inhibition of NETosis. In this assay, purified human neutrophils were stimulated with normal human serum activated with ovalbumin-antiovalbumin immune complexes and hydrogen peroxide. Free DNA expressed from the neutrophils was then measured in a PicoGreen assay. […] Direct visualization of neutrophil extracellular trap (NET) formation by fluorescence microscopy was used to confirm the above NETosis results with the 18 variant. Human neutrophils were purified and stimulated on glass slides then stained with DAPI to visualize DNA and probed with anti-neutrophil elastase (αNE) and anti-histone H3 (αhistone), as previously described. […] Fluorescence microscopy visualization of NETs confirmed the findings seen for quantitative measurements of free DNA.

A further test addresses T4, myeloperoxidase (MPO) (Homo sapiens, UniProt P05164).
T4 construct: purchased Lee BioSolutions (Maryland Heights, Mo.)
Briefly: MPO peroxidase activity, TMB-based assay. The class given is biochemical. On the procedure:
PIC1 and sarcosine variants were diluted to 25 mg/ml and then serially titrated in a 96 well plate at a volume of 0.02 ml. Myeloperoxidase (MPO) was diluted to 20 μg/ml and 0.02 ml was added to the titrated peptides. TMB (3,3′,5,5′-tetramethylbenzidine) (0.1 ml) was added to each well for 2 minutes, followed by 0.1 ml of 2.5 N H2SO4 for another 2 minutes, and then read on a 96 well plate reader (BioTek) at 450 nm.
In this assay, the variants were tested for MPO inhibition over a range of concentrations. Strong MPO inhibition was found for all variants with the exception of the no-cysteine variant (C9,10).

Test [4] relates to classical complement pathway. On the procedure: as §2, §3
A CH50-type hemolytic assay was then performed. with antibody-sensitized sheep erythrocytes, isolating the classical pathway by utilizing factor B-depleted sera; peptides were tested at 0.4 mM.

Where [5] appears, read: summary grade of Table 4, key not given.

T4 sequence (P05164 279-745 limits assumed): as the sequence (P05164 279-745 limits assumed) above
T4 sequence (P05164 165-273 limits assumed): as the sequence (P05164 165-273 limits assumed) above
T1 sequence (P05164 279-745 limits assumed): as the sequence (P05164 279-745 limits assumed) above
T1 sequence (P05164 165-273 limits assumed): as the sequence (P05164 165-273 limits assumed) above
T2 sequence (P02745 23-245): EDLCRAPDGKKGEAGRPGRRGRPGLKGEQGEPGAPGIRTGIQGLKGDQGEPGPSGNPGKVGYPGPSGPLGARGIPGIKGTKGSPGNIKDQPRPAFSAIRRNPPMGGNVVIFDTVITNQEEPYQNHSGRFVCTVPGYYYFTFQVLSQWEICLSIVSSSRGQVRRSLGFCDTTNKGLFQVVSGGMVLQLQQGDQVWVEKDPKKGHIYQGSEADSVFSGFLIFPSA
T2 sequence (P02746 28-253): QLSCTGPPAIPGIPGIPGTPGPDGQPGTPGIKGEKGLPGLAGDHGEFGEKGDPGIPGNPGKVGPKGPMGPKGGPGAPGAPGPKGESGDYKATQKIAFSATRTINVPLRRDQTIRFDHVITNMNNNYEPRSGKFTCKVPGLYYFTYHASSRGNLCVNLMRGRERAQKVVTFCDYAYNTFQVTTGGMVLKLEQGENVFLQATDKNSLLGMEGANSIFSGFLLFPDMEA
T2 sequence (P02747 29-245): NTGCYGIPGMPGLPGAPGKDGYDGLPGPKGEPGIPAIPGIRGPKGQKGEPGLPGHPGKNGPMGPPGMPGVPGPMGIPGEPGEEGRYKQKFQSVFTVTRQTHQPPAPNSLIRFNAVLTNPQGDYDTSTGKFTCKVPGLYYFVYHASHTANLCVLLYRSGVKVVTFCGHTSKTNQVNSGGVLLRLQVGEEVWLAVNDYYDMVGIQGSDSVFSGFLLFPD

Turning to `CC[C@H](C)[C@H](N)C(=O)N[C@@H](C)C(=O)N[C@@H](CC(C)C)C(=O)N[C@H](C(=O)N[C@@H](CC(C)C)C(=O)N[C@@H](CCC(=O)O)C(=O)N1CCC[C@H]1C(=O)N[C@H](C(=O)N[C@@H](CS)C(=O)N[C@@H](CS)C(=O)N[C@@H](CCC(N)=O)C(=O)N[C@@H](CCC(=O)O)C(=O)N[C@@H](CCCNC(=N)N)C(=O)N[C@@H](C)C(=O)N[C@@H](C)C(=O)O)[C@@H](C)CC)[C@@H](C)CC` [PA], on MPO, the “binding to MPO, in words” value is “near complete overlay of the 18 and PA curves”. For the same molecule, the “binding to C1q, in words” value at C1q was “superior binding to C1q as compared with the other peptides”.
On to `CC[C@H](C)[C@H](N)C(=O)N(C)CC(=O)N[C@@H](CC(C)C)C(=O)N[C@H](C(=O)N[C@@H](CC(C)C)C(=O)N[C@@H](CCC(=O)O)C(=O)N1CCC[C@H]1C(=O)N[C@H](C(=O)N[C@@H](CS)C(=O)N[C@@H](CS)C(=O)N[C@@H](CCC(N)=O)C(=O)N[C@@H](CCC(=O)O)C(=O)N[C@@H](CCCNC(=N)N)C(=O)N[C@@H](C)C(=O)N[C@@H](C)C(=O)O)[C@@H](C)CC)[C@@H](C)CC` [A2] (H-I[Sar]LILEPICCQERAA-OH), for which, in test [1], the “inhibition of ABO incompatible hemolysis, in words” value is “inhibited ABO incompatible hemolysis to a greater extent than did the PA-dPEG24”.
With `CC[C@H](C)[C@H](N)C(=O)N[C@@H](C)C(=O)N[C@@H](CC(C)C)C(=O)N[C@H](C(=O)N[C@@H](CC(C)C)C(=O)N[C@@H](CCC(=O)O)C(=O)N1CCC[C@H]1C(=O)N[C@H](C(=O)N(C)CC(=O)N[C@@H](CS)C(=O)N[C@@H](CCC(N)=O)C(=O)N[C@@H](CCC(=O)O)C(=O)N[C@@H](CCCNC(=N)N)C(=O)N[C@@H](C)C(=O)N[C@@H](C)C(=O)O)[C@@H](C)CC)[C@@H](C)CC` [C9] (H-IALILEPI[Sar]CQERAA-OH), the “total antioxidant capacity, in words” value in test [2] is reported as “approximately half of the antioxidant capacity as PA-dPEG24”. Also, in test [1], the “complement inhibition overall, in words” value is reported as “performed almost identically to the parent compound, PA-dPEG24” and the “inhibition of ABO incompatible hemolysis, in words” value was “inhibited ABO incompatible hemolysis to a greater extent than did the PA-dPEG24”. In addition, the “inhibition of heme ring degradation, in words” value against MPO heme ring was “near perfect preservation of the heme ring absorption spectrum”.
For `CC[C@H](C)[C@H](N)C(=O)N[C@@H](C)C(=O)N[C@@H](CC(C)C)C(=O)N(C)CC(=O)N[C@@H](CC(C)C)C(=O)N[C@@H](CCC(=O)O)C(=O)N1CCC[C@H]1C(=O)N[C@H](C(=O)N[C@@H](CS)C(=O)N[C@@H](CS)C(=O)N[C@@H](CCC(N)=O)C(=O)N[C@@H](CCC(=O)O)C(=O)N[C@@H](CCCNC(=N)N)C(=O)N[C@@H](C)C(=O)N[C@@H](C)C(=O)O)[C@@H](C)CC` [I4] (H-IAL[Sar]LEPICCQERAA-OH), the “total antioxidant capacity, in words” value in test [2] is reported as “antioxidant capacity approaching that of PA-dPEG24”. Further, the “inhibition of NETosis (free DNA, PicoGreen), in words” value in test [3] was “reduced ability to inhibit NETosis compared with PA-dPEG24”. Besides, the “inhibition of ABO incompatible hemolysis, in words” value in test [1] is recorded as “inhibited ABO incompatible hemolysis to a greater extent than did the PA-dPEG24”.
Turning to `CC[C@H](C)[C@H](N)C(=O)N[C@@H](C)C(=O)N(C)CC(=O)N[C@H](C(=O)N[C@@H](CC(C)C)C(=O)N[C@@H](CCC(=O)O)C(=O)N1CCC[C@H]1C(=O)N[C@H](C(=O)N[C@@H](CS)C(=O)N[C@@H](CS)C(=O)N[C@@H](CCC(N)=O)C(=O)N[C@@H](CCC(=O)O)C(=O)N[C@@H](CCCNC(=N)N)C(=O)N[C@@H](C)C(=O)N[C@@H](C)C(=O)O)[C@@H](C)CC)[C@@H](C)CC` [L3] (H-IA[Sar]ILEPICCQERAA-OH), in test [2], the “total antioxidant capacity, in words” value is recorded as “antioxidant capacity approaching that of PA-dPEG24”.
As for `CC[C@H](C)[C@H](N)C(=O)N[C@@H](C)C(=O)N[C@@H](CC(C)C)C(=O)N[C@H](C(=O)N[C@@H](CC(C)C)C(=O)N[C@@H](CCC(=O)O)C(=O)N1CCC[C@H]1C(=O)N[C@H](C(=O)N(C)CC(=O)N[C@@H](CCC(N)=O)C(=O)N[C@@H](CCC(=O)O)C(=O)N[C@@H](CCCNC(=N)N)C(=O)N[C@@H](C)C(=O)N[C@@H](C)C(=O)O)[C@@H](C)CC)[C@@H](C)CC` [C9, 10] (H-IALILEPI[Sar]QERAA-OH), the “total antioxidant capacity, in words” value in test [2] is “no antioxidant capacity”. For the same molecule, in test [2] (setting [5]), the “Total Antioxidant Cap” value came out at 0. For the same molecule, the “inhibition of NETosis (free DNA, PicoGreen), in words” value in test [3] is recorded as “only slight inhibition relative to the negative control”. In test [1], the “complement inhibition overall, in words” value is on record as “most, but not all, complement inhibition was lost” and the “inhibition of ABO incompatible hemolysis, in words” value is listed as “minimal inhibition of ABO hemolysis”. Besides, the “ABO C’ inhibition” value in test [1] (setting [5]) stood at 0. The “inhibition of heme ring degradation, in words” value at MPO heme ring is listed as “showed inhibition of heme ring degradation”. In addition, the “MPO inhibition, in words” value at myeloperoxidase (MPO) (dose-response and half-maximal inhibition, FIG. 2A, 2B) is on record as “does not possess”. Further, the MPO inhibition at myeloperoxidase (MPO) (setting [5]) worked out at 0. Further, the “inhibition of classical pathway hemolysis, in words” value in test [4] (peptides at 0.4 mM, compared with PA-dPEG24, FIG. 1B) was “minimal activity”. Further, the “Classical C’ inhibition” value in test [4] (setting [5]) is 0.
